US5358712A, “Radiopharmaceutical agents for the detection of Alzheimer's disease” (Regents of the University of Minnesota, priority 1993, dated 1994)

What was measured:
[1] = Blocking experiments: inhibition of radiotracer accumulation in the rat by coadministered compound; assay type: in vivo, rat (male Wistar); conditions: rat, iv, rat, iv, 60 min
Protocol: *Animals in group 1 received an iv injection of (+)4-[^125 l]HIPP
only. For groups 2, 3, and 4, the radiotracer was coadministered with the
hydrochlorides of (+)7 (0.53 mg/kg), (-)7 (0.53 mg/kg) and vesamicol (0.3
Four groups of male Wistar rats (n=3) were used in these experiments. All animals received an iv dose of 8-10 μCi of the radiotracer in 0.1 ml of 50% aq. ethanol. Additionally, in groups 2, 3 and 4, the radiotracer was coadministered with (+)-HBrPP.HCl(1.3 μmol/kg), (-)-HBrPP.HCl(1.3 μmol/kg) and (dl)-vesamicol hydrochloride (1.1 μmol/kg), respectively. At 60 min. post-injection, blood was collected by cardiac puncture and the animals sacrificed as described above. The data was analyzed as outlined above.
NOTE: The dose of radiotracer injected was 5-7 mCi. Group I was the
control, injected with the radiotracer only. Group II included the
simultaneous injection of "cold"(dl)3-HIPP (HCl) (0.53 mg/kg). Group III
included the simultaneous injection of (dl) vesamicol (HCl) (0.31 mg/kg).
All rats were sacrificed at one hour postinjection.
NOTE: Group I was the control, injected with the radiotracer only. Group
II included the simultaneous injection of "cold"(dl)3-HIPP (HCl) (0.53
mg/kg). Group III included the simultaneous injection of (dl) vesamicol
hydrochloride (0.31 mg/kg). The dose of radiotracer was 8-9 μCi. All
rats were sacrificed at one hour postinjection.
NOTE: Group I received (+)[^125 l]13 only. Group II received the (+)
radiotracer coinjected with 0.31 mg/kg (dl)vesamicol hydrochloride. Group
III received (-)[^125 l]13 only. Group IV received the (-) radiotrace
coinjected with 0.31 mg/kg (dl)vesamicol hydrochloride. All animals were
sacrificed at one hour postinjection. The dose of radiotracer injected pe

[2] = Tissue distribution (biodistribution) of radioiodinated compound in the rat; conditions: rat, iv; for tissue uptake at 1 h: 60 min; for tissue uptake at 3 h: 180 min
Protocol: Four groups of male Wistar rats (with four animals per group) weighing 200-350 g were used in these experiments. Each animal received, while under ether anesthesia, an intravenous injection of the radiotracer (10-20 μCi) dissolved in 0.1 ml of 50% aqueous ethanol. At 5, 30, and 60 and 180 min. post-injection, blood was collected from the anesthetized animals by cardiac puncture, and the animal was immediately sacrificed by cardiectomy. The organs and tissues of interest were harvested, transferred to preweighed tubes and counted in a Beckman gamma counter. The tubes were subsequently reweighed to give the weight of the corresponding tissues. Preweighed tubes containing ^1 -ml samples of a 1:100 dilution of the injection dose were also counted and used as reference for calculating the tissue accumulation of radioactivity. The accumulation of radiotracer was expressed as a percentage of injected dose per gram of tissue.

[3] = kidney, radioactivity in kidney
[4] = muscle, radioactivity in muscle
[5] = spleen, radioactivity in spleen

tissue uptake at 1 h ([1]; blood, + (dl)-vesamicol HCl 0.3 (Table 3) or 0.31 mg/kg, read-out: radioactivity in blood): 0.12 %ID/g
tissue uptake at 1 h ([1]; blood, + cold (dl)3-HIPP HCl 0.53 mg/kg, read-out: radioactivity in blood): 0.13 %ID/g
tissue uptake at 1 h ([1]; blood, radiotracer only (control), read-out: radioactivity in blood): 0.09 %ID/g
tissue uptake at 1 h ([1]; brain, + (dl)-vesamicol HCl 0.3 (Table 3) or 0.31 mg/kg, read-out: radioactivity in brain): 0.26 %ID/g
tissue uptake at 1 h ([1]; brain, + cold (dl)3-HIPP HCl 0.53 mg/kg, read-out: radioactivity in brain): 0.24 %ID/g
tissue uptake at 1 h ([1]; brain, radiotracer only (control), read-out: radioactivity in brain): 0.76 %ID/g
tissue uptake at 1 h ([1]; heart, + (dl)-vesamicol HCl 0.3 (Table 3) or 0.31 mg/kg, read-out: radioactivity in heart): 0.13 %ID/g
tissue uptake at 1 h ([1]; heart, + cold (dl)3-HIPP HCl 0.53 mg/kg, read-out: radioactivity in heart): 0.15 %ID/g
tissue uptake at 1 h ([1]; heart, radiotracer only (control), read-out: radioactivity in heart): 0.36 %ID/g
tissue uptake at 1 h ([1]; kidney, + (dl)-vesamicol HCl 0.3 (Table 3) or 0.31 mg/kg, read-out: radioactivity in kidney): 0.55 %ID/g
tissue uptake at 1 h ([1]; kidney, + cold (dl)3-HIPP HCl 0.53 mg/kg, read-out: radioactivity in kidney): 0.62 %ID/g
tissue uptake at 1 h ([1]; kidney, radiotracer only (control), read-out: radioactivity in kidney): 1.48 %ID/g
tissue uptake at 1 h ([1]; liver, + (dl)-vesamicol HCl 0.3 (Table 3) or 0.31 mg/kg, read-out: radioactivity in liver): 0.87 %ID/g
tissue uptake at 1 h ([1]; liver, + cold (dl)3-HIPP HCl 0.53 mg/kg, read-out: radioactivity in liver): 0.71 %ID/g
tissue uptake at 1 h ([1]; liver, radiotracer only (control), read-out: radioactivity in liver): 0.86 %ID/g
tissue uptake at 1 h ([1]; lung, + (dl)-vesamicol HCl 0.3 (Table 3) or 0.31 mg/kg, read-out: radioactivity in lung): 0.71 %ID/g
tissue uptake at 1 h ([1]; lung, + cold (dl)3-HIPP HCl 0.53 mg/kg, read-out: radioactivity in lung): 0.92 %ID/g
tissue uptake at 1 h ([1]; lung, radiotracer only (control), read-out: radioactivity in lung): 1.52 %ID/g
tissue uptake at 1 h ([1]; muscle, + (dl)-vesamicol HCl 0.3 (Table 3) or 0.31 mg/kg, read-out: radioactivity in muscle): 0.12 %ID/g
tissue uptake at 1 h ([1]; muscle, + cold (dl)3-HIPP HCl 0.53 mg/kg, read-out: radioactivity in muscle): 0.11 %ID/g
tissue uptake at 1 h ([1]; muscle, radiotracer only (control), read-out: radioactivity in muscle): 0.17 %ID/g
tissue uptake at 1 h ([1]; spleen, + (dl)-vesamicol HCl 0.3 (Table 3) or 0.31 mg/kg, read-out: radioactivity in spleen): 0.48 %ID/g
tissue uptake at 1 h ([1]; spleen, + cold (dl)3-HIPP HCl 0.53 mg/kg, read-out: radioactivity in spleen): 0.5 %ID/g
tissue uptake at 1 h ([1]; spleen, radiotracer only (control), read-out: radioactivity in spleen): 1.14 %ID/g
tissue uptake at 5 min ([2]; blood, radioactivity in blood): 0.08 %ID/g
tissue uptake at 1 h ([2]; blood, radioactivity in blood): 0.09 %ID/g
tissue uptake at 3 h ([2]; blood, radioactivity in blood): 0.08 %ID/g
tissue uptake at 5 min ([2]; brain, radioactivity in brain): 1.03 %ID/g
tissue uptake at 1 h ([2]; brain, radioactivity in brain): 0.82 %ID/g
tissue uptake at 5 min ([2]; heart, radioactivity in heart): 1.3 %ID/g
tissue uptake at 1 h ([2]; heart, radioactivity in heart): 0.38 %ID/g
tissue uptake at 3 h ([2]; heart, radioactivity in heart): 0.16 %ID/g
tissue uptake at 5 min [2, 3]: 2.55 %ID/g
tissue uptake at 1 h [2, 3]: 1.28 %ID/g
tissue uptake at 3 h [2, 3]: 0.75 %ID/g
tissue uptake at 5 min ([2]; liver, radioactivity in liver): 1.17 %ID/g
tissue uptake at 1 h ([2]; liver, radioactivity in liver): 0.89 %ID/g
tissue uptake at 3 h ([2]; liver, radioactivity in liver): 0.51 %ID/g
tissue uptake at 5 min ([2]; lung, radioactivity in lung): 7.34 %ID/g
tissue uptake at 1 h ([2]; lung, radioactivity in lung): 1.42 %ID/g
tissue uptake at 3 h ([2]; lung, radioactivity in lung): 0.61 %ID/g
tissue uptake at 5 min [2, 4]: 0.27 %ID/g
tissue uptake at 1 h [2, 4]: 0.16 %ID/g
tissue uptake at 3 h [2, 4]: 0.12 %ID/g
tissue uptake at 5 min [2, 5]: 0.5 %ID/g
tissue uptake at 1 h [2, 5]: 1.12 %ID/g
tissue uptake at 3 h [2, 5]: 0.66 %ID/g
Structure (SMILES): OC(Cc1cccc([125I])c1)CN1CCC(c2ccccc2)CC1 (single isomer, unassigned; (+)) [(+)-[^125 l]12, 2-Hydroxyl-3-(3-iodophenyl)-1-[1-(4-phenylpiperidinyl)]propane]
